# Source: ChEMBL document CHEMBL5653615 (J Biol Chem, 2013)
# Legend:
# [1] = target: T1, Tyrosine-protein kinase ZAP-70 (Homo sapiens) (UniProt P43403); assay: Inhibition of human ZAP70 at 18.6 nM by HotSpot assay relative to control
# T1 sequence (whole entry): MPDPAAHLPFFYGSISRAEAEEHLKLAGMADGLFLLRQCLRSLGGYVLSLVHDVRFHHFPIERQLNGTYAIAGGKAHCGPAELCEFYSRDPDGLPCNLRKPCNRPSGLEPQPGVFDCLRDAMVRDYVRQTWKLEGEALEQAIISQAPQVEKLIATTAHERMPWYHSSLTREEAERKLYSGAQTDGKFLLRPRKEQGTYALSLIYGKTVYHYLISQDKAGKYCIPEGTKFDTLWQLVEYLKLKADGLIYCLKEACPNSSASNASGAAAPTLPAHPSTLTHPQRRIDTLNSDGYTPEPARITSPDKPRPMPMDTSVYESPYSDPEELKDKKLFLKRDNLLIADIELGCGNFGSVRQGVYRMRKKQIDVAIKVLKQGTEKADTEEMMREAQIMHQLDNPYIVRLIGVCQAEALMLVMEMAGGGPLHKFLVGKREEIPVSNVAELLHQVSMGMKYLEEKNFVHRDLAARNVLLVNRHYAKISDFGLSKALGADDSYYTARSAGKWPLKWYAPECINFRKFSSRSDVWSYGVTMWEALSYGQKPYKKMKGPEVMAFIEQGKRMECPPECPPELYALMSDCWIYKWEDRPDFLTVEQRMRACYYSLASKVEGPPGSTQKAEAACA
# [2] = target: Protein kinase C beta type (Homo sapiens) (UniProt P05771); assay: Inhibition of human PKCb1 at 1.82 nM by HotSpot assay relative to control
# [3] = target: CDK1/Cyclin A (Homo sapiens) (UniProt P06493+P20248); assay: Inhibition of human CDK1/cyclin A at 1.82 nM by HotSpot assay relative to control; type: protein-complex assay
# [4] = target: T2, Interleukin-1 receptor-associated kinase 4 (Homo sapiens) (UniProt Q9NWZ3); assay: Inhibition of human IRAK4 at 1.82 nM by HotSpot assay relative to control
# T2 sequence (whole entry): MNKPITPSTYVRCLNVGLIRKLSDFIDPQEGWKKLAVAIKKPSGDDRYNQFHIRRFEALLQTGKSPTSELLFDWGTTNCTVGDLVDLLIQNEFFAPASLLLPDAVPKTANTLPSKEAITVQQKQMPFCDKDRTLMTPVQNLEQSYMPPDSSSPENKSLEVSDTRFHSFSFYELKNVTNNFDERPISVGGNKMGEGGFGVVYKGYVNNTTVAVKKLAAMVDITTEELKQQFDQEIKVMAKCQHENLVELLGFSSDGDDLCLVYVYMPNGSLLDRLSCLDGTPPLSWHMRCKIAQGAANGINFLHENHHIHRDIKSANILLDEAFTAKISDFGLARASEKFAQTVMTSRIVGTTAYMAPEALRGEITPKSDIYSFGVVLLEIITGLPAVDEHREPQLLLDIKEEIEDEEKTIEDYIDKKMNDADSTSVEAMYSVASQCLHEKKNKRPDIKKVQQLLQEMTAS
# [5] = target: T3, Mitogen-activated protein kinase kinase kinase 2 (Homo sapiens) (UniProt Q9Y2U5); assay: Inhibition of human MEKK2 at 1.82 nM by HotSpot assay relative to control
# T3 sequence (whole entry): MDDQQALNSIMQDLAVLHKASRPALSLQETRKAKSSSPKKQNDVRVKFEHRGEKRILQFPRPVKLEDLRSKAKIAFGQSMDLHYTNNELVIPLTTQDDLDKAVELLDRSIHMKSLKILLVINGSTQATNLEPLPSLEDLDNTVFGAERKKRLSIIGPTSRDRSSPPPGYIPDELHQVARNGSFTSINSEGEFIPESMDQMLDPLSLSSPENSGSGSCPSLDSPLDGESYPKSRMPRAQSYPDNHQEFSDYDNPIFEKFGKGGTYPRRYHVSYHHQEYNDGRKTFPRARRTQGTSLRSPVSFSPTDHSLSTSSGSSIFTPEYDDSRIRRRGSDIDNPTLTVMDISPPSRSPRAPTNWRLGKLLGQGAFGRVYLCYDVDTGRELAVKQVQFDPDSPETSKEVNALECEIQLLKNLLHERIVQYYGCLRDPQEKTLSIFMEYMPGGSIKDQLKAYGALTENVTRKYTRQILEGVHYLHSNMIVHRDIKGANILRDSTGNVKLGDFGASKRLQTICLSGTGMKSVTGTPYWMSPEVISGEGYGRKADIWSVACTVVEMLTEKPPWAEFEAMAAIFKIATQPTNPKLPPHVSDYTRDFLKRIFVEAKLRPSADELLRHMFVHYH
# [6] = target: Non-receptor tyrosine-protein kinase TYK2 (Homo sapiens) (UniProt P29597); assay: Inhibition of human TYK2 at 1.82 nM by HotSpot assay relative to control
# [7] = target: Serine/threonine-protein kinase 26 (Homo sapiens) (UniProt Q9P289); assay: Inhibition of human MST4 at 1.82 nM by HotSpot assay relative to control
# Sequence of Serine/threonine-protein kinase 26 (Homo sapiens) (Q9P289 2-416 limits assumed): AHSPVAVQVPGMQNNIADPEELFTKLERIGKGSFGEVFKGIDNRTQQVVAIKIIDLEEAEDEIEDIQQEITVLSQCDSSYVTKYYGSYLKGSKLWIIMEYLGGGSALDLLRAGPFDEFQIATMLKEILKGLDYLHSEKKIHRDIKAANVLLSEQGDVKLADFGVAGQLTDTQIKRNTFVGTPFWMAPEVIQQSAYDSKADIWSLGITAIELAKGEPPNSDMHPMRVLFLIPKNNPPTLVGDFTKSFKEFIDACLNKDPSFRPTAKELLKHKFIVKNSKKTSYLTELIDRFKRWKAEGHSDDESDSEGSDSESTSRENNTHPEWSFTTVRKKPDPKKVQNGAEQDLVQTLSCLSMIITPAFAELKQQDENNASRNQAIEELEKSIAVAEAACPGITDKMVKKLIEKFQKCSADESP
# Sequence of CDK1/Cyclin A (Homo sapiens) (P06493 whole entry, looked up): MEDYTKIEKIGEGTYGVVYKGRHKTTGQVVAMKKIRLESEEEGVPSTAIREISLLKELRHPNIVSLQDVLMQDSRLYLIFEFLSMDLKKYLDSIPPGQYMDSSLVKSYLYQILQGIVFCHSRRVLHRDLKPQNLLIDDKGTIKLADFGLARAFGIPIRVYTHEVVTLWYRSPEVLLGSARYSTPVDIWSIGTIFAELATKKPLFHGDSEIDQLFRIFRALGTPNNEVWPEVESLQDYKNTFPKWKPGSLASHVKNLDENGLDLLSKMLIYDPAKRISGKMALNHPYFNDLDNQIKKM
# Sequence of CDK1/Cyclin A (Homo sapiens) (P20248 whole entry, looked up): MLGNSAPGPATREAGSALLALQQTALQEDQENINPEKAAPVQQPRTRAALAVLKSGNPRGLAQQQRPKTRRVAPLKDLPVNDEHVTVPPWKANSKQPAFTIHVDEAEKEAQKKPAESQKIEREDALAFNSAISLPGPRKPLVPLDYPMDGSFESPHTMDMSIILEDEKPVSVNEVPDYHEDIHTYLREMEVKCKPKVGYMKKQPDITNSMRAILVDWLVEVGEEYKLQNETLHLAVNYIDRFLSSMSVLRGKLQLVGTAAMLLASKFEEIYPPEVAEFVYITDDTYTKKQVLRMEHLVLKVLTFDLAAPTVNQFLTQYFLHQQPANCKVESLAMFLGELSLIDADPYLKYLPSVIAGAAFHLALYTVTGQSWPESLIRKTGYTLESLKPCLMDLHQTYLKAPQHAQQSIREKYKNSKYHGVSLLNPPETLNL
# Sequence of Protein kinase C beta type (Homo sapiens) (P05771 2-671 limits assumed): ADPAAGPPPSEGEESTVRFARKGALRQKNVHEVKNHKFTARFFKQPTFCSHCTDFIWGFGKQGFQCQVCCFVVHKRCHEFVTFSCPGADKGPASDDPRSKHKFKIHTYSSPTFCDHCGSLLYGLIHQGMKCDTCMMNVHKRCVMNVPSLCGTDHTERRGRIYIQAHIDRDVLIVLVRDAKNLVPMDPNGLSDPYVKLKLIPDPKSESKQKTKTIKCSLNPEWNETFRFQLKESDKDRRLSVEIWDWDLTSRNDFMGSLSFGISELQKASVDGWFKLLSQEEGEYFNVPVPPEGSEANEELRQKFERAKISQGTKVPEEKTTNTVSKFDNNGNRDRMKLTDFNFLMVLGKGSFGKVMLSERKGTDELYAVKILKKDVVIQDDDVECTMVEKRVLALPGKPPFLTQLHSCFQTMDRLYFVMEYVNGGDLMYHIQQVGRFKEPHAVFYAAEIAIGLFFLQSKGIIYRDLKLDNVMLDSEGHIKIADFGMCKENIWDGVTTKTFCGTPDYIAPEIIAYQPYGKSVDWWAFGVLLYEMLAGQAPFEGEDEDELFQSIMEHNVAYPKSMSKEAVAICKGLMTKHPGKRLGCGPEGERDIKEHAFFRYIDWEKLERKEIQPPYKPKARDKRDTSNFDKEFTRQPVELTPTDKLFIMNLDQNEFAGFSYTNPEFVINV
# Sequence of Non-receptor tyrosine-protein kinase TYK2 (Homo sapiens) (P29597 whole entry): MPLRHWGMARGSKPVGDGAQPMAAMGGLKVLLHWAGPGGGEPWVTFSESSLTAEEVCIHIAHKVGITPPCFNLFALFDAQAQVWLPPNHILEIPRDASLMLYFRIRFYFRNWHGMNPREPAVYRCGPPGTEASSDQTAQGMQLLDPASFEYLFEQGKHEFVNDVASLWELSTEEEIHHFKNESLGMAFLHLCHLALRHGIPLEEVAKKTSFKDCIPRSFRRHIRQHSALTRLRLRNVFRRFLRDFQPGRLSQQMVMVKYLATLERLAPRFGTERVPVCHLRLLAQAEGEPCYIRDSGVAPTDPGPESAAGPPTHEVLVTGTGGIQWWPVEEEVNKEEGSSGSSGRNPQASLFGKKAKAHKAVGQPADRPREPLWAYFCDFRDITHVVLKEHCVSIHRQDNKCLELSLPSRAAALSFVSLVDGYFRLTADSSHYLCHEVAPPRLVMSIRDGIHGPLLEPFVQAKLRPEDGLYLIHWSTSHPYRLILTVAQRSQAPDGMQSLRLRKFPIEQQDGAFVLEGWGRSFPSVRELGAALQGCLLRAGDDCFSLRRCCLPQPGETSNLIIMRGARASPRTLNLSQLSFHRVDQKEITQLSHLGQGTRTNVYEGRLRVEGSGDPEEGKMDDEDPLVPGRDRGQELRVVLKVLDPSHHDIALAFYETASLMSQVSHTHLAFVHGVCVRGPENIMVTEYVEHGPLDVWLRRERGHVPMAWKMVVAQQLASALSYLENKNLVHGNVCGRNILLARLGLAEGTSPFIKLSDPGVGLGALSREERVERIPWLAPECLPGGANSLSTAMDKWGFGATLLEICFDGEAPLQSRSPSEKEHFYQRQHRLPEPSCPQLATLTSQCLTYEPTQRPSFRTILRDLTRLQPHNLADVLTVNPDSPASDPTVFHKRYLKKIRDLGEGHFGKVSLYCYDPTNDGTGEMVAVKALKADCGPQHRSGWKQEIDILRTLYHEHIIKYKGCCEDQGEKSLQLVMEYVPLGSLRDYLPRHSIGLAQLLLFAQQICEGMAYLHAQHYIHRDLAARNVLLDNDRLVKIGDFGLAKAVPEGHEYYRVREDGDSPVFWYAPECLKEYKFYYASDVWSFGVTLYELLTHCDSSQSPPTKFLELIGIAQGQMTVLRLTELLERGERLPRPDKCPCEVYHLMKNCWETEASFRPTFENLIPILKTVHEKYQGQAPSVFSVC
inhibition [1] [%],inhibition [2] [%],inhibition [3] [%],inhibition [4] [%],inhibition [5] [%],inhibition [6] [%],inhibition [7] [%],Compound
-3.52,,,,,,,C[C@]1(O)C[C@@H](c2nc(-c3ccc4ccc(-c5ccccc5)nc4c3)c3c(N)nccn32)C1
,-8.94,-1.79,-4.67,-7.18,1.02,-1.09,C[C@@]1(C(=O)Nc2ccc(F)nc2)CCCN1c1nc(Nc2cc(C3CC3)n[nH]2)c2cccn2n1
